Results published in US10383948B2, “Anti-cMet antibody drug conjugates and methods for their use” (AbbVie Inc., priority 2016, dated 2019).

Columns and labels:
NCI-H820 = experiment: Cytotoxicity assay (CellTiter-Glo, 6 days); assay type: cell-based, human; settings: NCI-H820, without MET amplification; FIG. 4C
Experimental: (§1) Tumor cells were plated at 2000-5000 cells/well in 180 μL growth medium containing 10% FBS in 96-well plates, and cultured at 37° C. in a humidified incubator with 5% C02. The following day, titrations of antibodies or ADCs in 20 μL were added and cells were incubated for 6 days. Cell viability was determined using a CellTiter-Glo Luminescent Cell Viability Assay (Promega) according to the manufacturer's instructions.
as §1, with “of” for “of antibodies or”

Hs746T = experiment: Cytotoxicity assay (CellTiter-Glo, 6 days); assay type: cell-based, human; settings: MET-amplified Hs746T gastric cancer cells; FIG. 4
Experimental: as §1, with “instructions. A non-binding, irrelevant negative control ADC conjugated to MMAE was also included in all assays to confirm that cell killing was antigen dependent.” for “instructions.”
as §1, with “of” for “of antibodies or”, “instructions. A non-binding, irrelevant negative control ADC conjugated to MMAE was also included in all assays to confirm that cell killing was antigen-dependent.” for “instructions.”

NCI-H441 = experiment: Cytotoxicity assay (CellTiter-Glo, 6 days); assay type: cell-based, human; settings: NCI-H441, without MET amplification; FIG. 4D
Experimental: as §1, with “instructions. A non-binding, irrelevant negative control ADC conjugated to MMAE was also included in all assays to confirm that cell killing was antigen dependent.” for “instructions.”
as §1, with “of” for “of antibodies or”, “instructions. A non-binding, irrelevant negative control ADC conjugated to MMAE was also included in all assays to confirm that cell killing was antigen-dependent.” for “instructions.”

SNU-5 = experiment: Cytotoxicity assay (CellTiter-Glo, 6 days); assay type: cell-based, human; settings: MET-amplified SNU-5 gastric cancer cells; FIG. 4
Experimental: as §1, with “instructions. A non-binding, irrelevant negative control ADC conjugated to MMAE was also included in all assays to confirm that cell killing was antigen dependent.” for “instructions.”

[1] = test system: Hs746T ABT-700R xenografts; experiment: ABT-700-refractory xenograft efficacy; assay type: in vivo, mice; settings: Hs746T ABT-700R xenografts; FIG. 12B
[2] = test system: Hs746T gastric cancer xenografts; experiment: Hs746T xenograft efficacy; settings: parental Hs746T xenografts, initial treatment; FIG. 12A
Experimental: Female SCID, SCID-Beige and nude mice were obtained from Charles River (Wilmington, Mass.) and housed at ten mice per cage. The body weight upon arrival was 20-22 g. Food and water were available ad libitum. Mice were acclimated to the animal facilities for a period of at least one week prior to commencement of experiments. Animals were tested in the light phase of a 12-hr light: 12-hr dark schedule (lights on at 06:00 hours).
Each experimental group included 8-10 animals.
Tumor volumes are depicted as mean±S.E.M.

[3] = patients; cited from earlier work

Substance: ABT-700: humanized recombinant IgG1 kappa anti-cMet antibody, humanized version of mouse monoclonal antibody 224G11
- inhibition of proliferation (NCI-H820): not cell lines without MET amplification
- inhibition of proliferation (Hs746T): inhibited proliferation of cells with MET amplification
- inhibition of proliferation (NCI-H441): not cell lines without MET amplification
- inhibition of proliferation (SNU-5): inhibited proliferation of cells with MET amplification
- tumor response [1]: refractory to ABT-700 treatment with quick tumor outgrowth on therapy
- tumor response [2]: tumor stasis followed by relapse

Substance: DCDT2980S: an MMAE ADC targeting CD22
- dose not tolerated [3]: 3.2 mg/kg
- dose tolerated [3]: 2.4 mg/kg

Substance: brentuximab vedotin: Seattle Genetics MMAE ADC with an approximate DAR of 4
- dose not tolerated [3]: 2.7 mg/kg
